Measured values from the supplement of paper PMC10307832.

What was measured:
Assay in all cases: relative viability (nuclei count vs DMSO), 5 days (fraction); higher = more cells survive
Wnt-C59 + Trametinib = compound: CC1=NC=CC(=C1)C2=CC=C(C=C2)CC(=O)NC3=CC=C(C=C3)C4=CN=CC=C4 [Wnt-C59] + CC(=O)Nc1cccc(-n2c(=O)n(C3CC3)c(=O)c3c(Nc4ccc(I)cc4F)n(C)c(=O)c(C)c32)c1 [Trametinib] (partner 0.02 µM)
Procedure, shortened: (§1)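 Lung cancer cell lines in 1536-well plates were dosed by pin tool the day after seeding, either with one drug alone or with a fixed anchor-drug dose plus five library-drug doses (not always all listed) in √10 steps. After 5 days, cells were fixed and their nuclei stained in one step (final 0.05% Triton X-100, 1% formaldehyde, 1 ug/ml Hoechst), then counted on 4× images. Relative viability is the nuclei count in treated wells divided by that in vehicle wells. Values are medians of duplicate plates.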

Wnt-C59 + Vorinostat = compound: CC1=NC=CC(=C1)C2=CC=C(C=C2)CC(=O)NC3=CC=C(C=C3)C4=CN=CC=C4 [Wnt-C59] + O=C(CCCCCCC(=O)Nc1ccccc1)NO [Vorinostat] (partner 1 µM)
Procedure, shortened: as §1

Lapatinib + Decitabine = compound: CS(=O)(=O)CCNCc1ccc(-c2ccc3ncnc(Nc4ccc(OCc5cccc(F)c5)c(Cl)c4)c3c2)o1 [Lapatinib] + Nc1ncn([C@H]2C[C@H](O)[C@@H](CO)O2)c(=O)n1 [Decitabine] (partner 2 µM)
Procedure, shortened: as §1

Wnt-C59 + Navitoclax = compound: CC1=NC=CC(=C1)C2=CC=C(C=C2)CC(=O)NC3=CC=C(C=C3)C4=CN=CC=C4 [Wnt-C59] + CC1(C)CCC(c2ccc(Cl)cc2)=C(CN2CCN(c3ccc(C(=O)NS(=O)(=O)c4ccc(N[C@H](CCN5CCOCC5)CSc5ccccc5)c(S(=O)(=O)C(F)(F)F)c4)cc3)CC2)C1 [Navitoclax] (partner 0.5 µM)
Procedure, shortened: as §1

| Cell Line | relative viability (Wnt-C59 + Trametinib; first compound 0.001 µM) | relative viability (Wnt-C59 + Trametinib; first compound 0.01 µM) | relative viability (Wnt-C59 + Trametinib; first compound 0.03162 µM) | relative viability (Wnt-C59 + Trametinib; first compound 0.1 µM) | relative viability (Wnt-C59 + Vorinostat; first compound 0.001 µM) | relative viability (Wnt-C59 + Vorinostat; first compound 0.01 µM) | relative viability (Wnt-C59 + Vorinostat; first compound 0.03162 µM) | relative viability (Wnt-C59 + Vorinostat; first compound 0.1 µM) | relative viability (Lapatinib + Decitabine; first compound 0.06325 µM) | relative viability (Lapatinib + Decitabine; first compound 0.2 µM) | relative viability (Lapatinib + Decitabine; first compound 0.6325 µM) | relative viability (Lapatinib + Decitabine; first compound 2 µM) | relative viability (Wnt-C59 + Navitoclax; first compound 0.001 µM) | relative viability (Wnt-C59 + Navitoclax; first compound 0.01 µM) | relative viability (Wnt-C59 + Navitoclax; first compound 0.03162 µM) | relative viability (Wnt-C59 + Navitoclax; first compound 0.1 µM) | relative viability (Lapatinib + Decitabine; first compound 0.02 µM) |
| --- | --- | --- | --- | --- | --- | --- | --- | --- | --- | --- | --- | --- | --- | --- | --- | --- | --- |
| NCI-H522 | 0.786 | 0.741 | 0.829 | 0.752 | 0.899 | 0.954 | 0.759 | 0.873 | 0.645 | 0.647 | 0.683 | 0.664 | – | – | – | – | – |
| NCI-H650 | 0.984 | 0.934 | 1.08 | 1.05 | 0.45 | 0.449 | 0.464 | 0.448 | 0.319 | 0.328 | 0.324 | 0.343 | – | – | – | – | – |
| NCI-H460 | 0.0894 | 0.111 | 0.191 | 0.156 | 0.688 | 0.711 | 0.743 | 0.648 | 0.488 | 0.542 | 0.435 | 0.461 | 0.968 | 1.18 | 1.11 | 1.04 | 0.429 |
| HCC-827 | 0.545 | 0.477 | 0.48 | 0.547 | 0.901 | 0.922 | 1.01 | 0.77 | 0.35 | 0.348 | 0.333 | 0.295 | 1.08 | 1.04 | 1.04 | 1.02 | 0.239 |
| NCI-H647 | 0.503 | 0.404 | 0.528 | 0.47 | 0.577 | 0.582 | 0.957 | 0.585 | 0.284 | 0.431 | 0.377 | 0.383 | 1.16 | 0.972 | 1.12 | 0.967 | 0.416 |
| SW 1573 | 0.515 | 0.551 | 0.582 | 0.515 | 0.801 | 0.673 | 0.778 | 0.662 | 0.437 | 0.565 | 0.633 | 0.489 | 1.03 | 1.04 | 1.09 | 0.989 | 0.492 |
| NCI-H2170 | 0.923 | 0.864 | 1.03 | 0.974 | 0.803 | 0.795 | 0.834 | 0.809 | 0.459 | 0.477 | 0.429 | 0.182 | 0.608 | 0.35 | 0.595 | 0.527 | 0.503 |
| NCI-H358 | 0.129 | 0.119 | 0.143 | 0.1 | 0.803 | 0.589 | 0.8 | 0.65 | 0.181 | 0.206 | 0.162 | 0.152 | – | – | – | – | 0.205 |
| COR-L 105 | 0.444 | 0.433 | 0.448 | 0.488 | 0.991 | 0.71 | 0.877 | 0.857 | 0.538 | 0.586 | 0.613 | 0.376 | 0.905 | 0.733 | 0.878 | 1.02 | 0.62 |
| PC-3 [JPC-3] | 0.78 | 0.736 | 0.623 | 0.785 | 0.781 | 0.917 | 0.785 | 1.13 | 0.786 | – | 0.954 | 0.598 | 0.868 | 0.815 | 0.933 | 0.809 | – |
| NCI-H1993 | 0.634 | 0.486 | 0.507 | 0.465 | 0.78 | 0.758 | 0.978 | 0.394 | – | 0.555 | 0.64 | 0.462 | 1.04 | 0.82 | 1.09 | 0.972 | 0.68 |
| NCI-H1734 | 0.675 | 0.744 | 0.77 | 0.632 | 0.76 | 0.822 | 0.833 | 0.816 | 0.435 | 0.506 | 0.552 | 0.432 | 0.856 | 0.811 | 0.86 | 0.838 | – |
| ChaGo-K-1 | 0.845 | 0.875 | 0.96 | 0.841 | 0.751 | 0.781 | 0.689 | 0.774 | 0.562 | 0.542 | 0.52 | 0.447 | 0.657 | – | 1.07 | 1.18 | 0.528 |
| LU99A | 0.583 | 0.474 | 0.569 | 0.506 | 0.486 | 0.474 | 0.484 | 0.442 | 0.73 | 0.859 | 0.896 | 0.721 | 0.779 | 0.933 | 0.822 | 0.772 | 0.903 |
| ABC-1 | – | – | – | – | 1.05 | 1.07 | 1.07 | 1.18 | 0.931 | – | 1.01 | 1.02 | – | – | – | – | 1.1 |
| HCC-44 | 1.11 | 0.969 | 0.996 | 1.09 | 1.16 | 1.02 | 1.13 | 1.12 | 0.908 | 0.964 | 1.02 | 0.797 | 1.01 | 0.904 | 1.02 | 0.954 | 0.838 |
| NCI-H1650 | 0.642 | 0.716 | 0.684 | 0.774 | 0.69 | 0.638 | 0.606 | 0.516 | 0.509 | 0.418 | 0.371 | 0.503 | 1.35 | 1.41 | 1.27 | 1.1 | 0.362 |
| NCI-H596 | 0.734 | 0.704 | 0.879 | 0.876 | 0.601 | 0.603 | 0.59 | 0.76 | 0.979 | 0.793 | 1.04 | 0.957 | 1.04 | 0.802 | 1.05 | 1.05 | – |
| NCI-H1915 | 0.302 | 0.304 | 0.346 | 0.31 | 0.487 | 0.492 | 0.629 | 0.526 | 0.284 | 0.248 | 0.253 | 0.255 | 0.822 | 0.8 | 0.77 | 0.8 | – |
| NCI-H1395 | 0.931 | 0.995 | 1.04 | 1.02 | 0.724 | 0.675 | 0.564 | 1.1 | 0.719 | 0.802 | 0.729 | 0.701 | 1.24 | 1.1 | 1.08 | 1.32 | – |
